Test results from publication PMC4698308, “A new amino acid substitution (Ala-205-Phe) in acetolactate synthase (ALS) confers broad spectrum resistance to ALS-inhibiting herbicides” (Planta, 2015).

How the values were obtained:
[1] = system: annual bluegrass (Poa annua L.); experiment: Whole plant confirmation of target-site resistance (visual control and dry biomass 28 days after treatment); type: in vivo
Procedure: Progeny of all POAAN-R3 plants subjected to genetic sequencing (RP1–RP8) were surface seeded into separate 10.2 × 10.2 cm greenhouse pots (Dillen Products/Myers Industries, Inc. Middlefield, OH, USA.) filled with a peat moss growing medium (ProMix BX Mycorrhizae. Premier Tech Horticulture, Quakertown, PA, USA) on 5 January 2015. The susceptible annual bluegrass population (S) included in our sequencing analysis was also seeded in the same fashion.
After seeding, pots were placed inside a growth chamber (Conviron A1000. Controlled Environments Inc, Hendersonville, NC) configured to provide 14 h day at 19 °C and a 10 h night at 10 °C. Light intensity inside the chamber averaged 296 μmol m^−2 s^−1. Irrigation was applied to each pot daily using distilled water and a misting nozzle. Annual bluegrass emergence was first noted on 16 January 2015. Plants remained inside the growth chamber until 26 January 2015. On this date, seedlings of each plant (RP1–RP8, S) were transplanted into individual 164 cm^3 plastic conical containers (SC10 Super Cell Cone-tainer. Stuewe and Sons. Tangent, OR 97389) filled with Sequatchie silt loam (fine-loamy, siliceous, semiactive, thermic humic Hapludult) measuring 6.2 in soil pH and 2.1 % in organic matter content. Transplants were replicated such that 32 plastic conical containers were created for each annual bluegrass plant analyzed in previous experiments (RP1–RP8, S). Immediately after transplanting, plastic conical containers were placed in a glasshouse located at the University of Tennessee (Knoxville, TN, USA; 35.56, 83.56). Peak light intensity in this glasshouse averaged 714 μmol m^−2 s^−1 with day/night temperatures averaging 27/17 °C. Irrigation was applied daily using an overhead misting system and plants were not clipped prior to initiating this study.
Plants were allowed to acclimate to this glasshouse environment for 10 days prior to being treated with foramsulfuron (Revolver. Bayer Environmental Sciences. Research Triangle Park, NC, USA) at 29 g ha^−1, imazamox (Clearcast. BASF Corporation. Research Triangle Park, NC) at 140 g ha^−1, or simazine (Princep 4L. Syngenta Professional Products. Greensboro, NC) at 1120 g ha^−1. Per label recommendations, imazamox and simazine treatments included a non-ionic surfactant (Activator-90. Loveland Products Inc. Greeley, CO, USA) at 0.25 % v/v. All treatments were applied in an enclosed spray chamber (Generation III track sprayer. DeVries Manufacturing, Hollandale, MN, USA) using a water carrier at 215 L ha^−1 through an 8004 EVS nozzle (TeeJet, Technologies, Spraying Systems Co., Glendale Heights, IL, USA). These herbicide treatments were selected to confirm results of genetic sequencing that RP1–RP8 were resistant to sulfonylurea, imidazolinone, and photosystem II inhibiting herbicides. A non-treated control treatment was included with each resistant (RP1–RP8) and susceptible (S) plant for comparison. Herbicides were applied on 5 February 2015 when plants were at a two-to-three leaf stage, prior to annual bluegrass tiller formation.
Annual bluegrass control was visually assessed on a 0 (i.e., no control) to 100 % (i.e., complete kill) scale relative to the non-treated 28 days after treatment. After all control data had been collected, aboveground biomass was harvested from each plastic conical container at the soil line using scissors, dried at 100 °C for 3 days, and weighed.
Treatments were arranged as a 9 × 4 factorial with nine plant selections (i.e., RP1–RP8, S) and four herbicide treatments (i.e., foramsulfuron, imazamox, simazine, non-treated) in a completely randomized design with four replications and repeated in time and space during February 2015. Plants were the same age during both experimental runs.

[2] = system: annual bluegrass (Poa annua L.); experiment: Whole plant non-target site resistance experiment with P450 inhibitors malathion or PBO (control 21 days after treatment); type: in vivo; details: for Annual bluegrass control S: susceptible (S)
Procedure: Additional experiments were conducted during March–April 2015 to determine if non-target site based mechanisms conferred resistance to ALS inhibitors in our annual bluegrass population, POAAN-R3. Plants (RP6, RP7, and S) were cultured in plastic conical containers as previously described and allowed to acclimate to the glasshouse for 18 days prior to initiating two experiments.
In the first experiment, resistant (RP6, RP7) and susceptible (S) plants were treated with foramsulfuron at 29 g ha^−1, trifloxysulfuron (Monument. Syngenta Professional Products. Greensboro, NC, USA) at 27.8 g ha^−1, imazaquin (Image. BASF Corporation. Research Triangle Park, NC) at 27.5 g ha^−1, or bispyribac-sodium (Velocity. Valent USA Corporation. Walnut Creek, CA, USA) at 70 g ha^−1. All herbicides were applied alone or in combination with either malathion (Spectrum Group. St. Louis, MO, USA) at 1000 g ha^−1 or piperonyl butoxide (Sigma Aldrich. St. Louis, MO, USA) at 2100 g ha^−1. Malathion and piperonyl butoxide (PBO) inhibit cytochrome P450 monooxygenases involved in metabolism of ALS inhibiting herbicides and are commonly used at the application rates tested herein to evaluate non-target site based resistance mechanisms in weeds (Burnet et al. [1994]; Christopher et al. [1992]; Yu and Powles [2014b]; Rao et al. [1995]). All herbicides were mixed in water carrier and included non-ionic surfactant at 0.25 % v/v. Malathion and PBO were mixed with methanol and de-ionized water (50:50) and applied 60 min prior to herbicide application using a previously described enclosed spray chamber on 13 February 2015.
Annual bluegrass control was visually assessed on a 0 (i.e., no control) to 100 % (i.e., complete kill) scale relative to the non-treated 21 days after treatment. After all control data had been collected, aboveground biomass was harvested from each plastic conical container at the soil line using scissors, dried at 100 °C, and weighed. Treatments were arranged as a 3 × 5 × 3 factorial with three plant selections (RP6, RP7, S), five herbicides (foramsulfuron, trifloxysulfuron, imazaquin, bispyribac-sodium, non-treated) and three P450 inhibitor treatments (malathion, PBO, non-treated) in a completely randomized design with four replications and repeated in separate glasshouses during February 2015.

COc1cc(OC)nc(NC(=O)NS(=O)(=O)c2cc(NC=O)ccc2C(=O)N(C)C)n1 [Foramsulfuron]
annual bluegrass control, resistant plants with the exception of RP6 ([1]; 28 days after treatment, summary over RP1–RP5, RP7, RP8): ≤ 11%
Annual bluegrass biomass RP1 ([1]; RP1, aboveground dry biomass 28 days after treatment, foramsulfuron 29, imazamox 140, simazine 1120 g ha^-1): 60 % of nontreated control
Annual bluegrass control RP1 ([1]; RP1 plants, 28 days after treatment, 2 to 3 leaf stage, foramsulfuron 29, imazamox 140, simazine 1120 g ha^−1): 8%
Annual bluegrass biomass RP2 ([1]; RP2, aboveground dry biomass 28 days after treatment, foramsulfuron 29, imazamox 140, simazine 1120 g ha^-1): 45 % of nontreated control
Annual bluegrass control RP2 ([1]; RP2 plants, 28 days after treatment, 2 to 3 leaf stage, foramsulfuron 29, imazamox 140, simazine 1120 g ha^−1): 11%
Annual bluegrass biomass RP3 ([1]; RP3, aboveground dry biomass 28 days after treatment, foramsulfuron 29, imazamox 140, simazine 1120 g ha^-1): 48 % of nontreated control
Annual bluegrass control RP3 ([1]; RP3 plants, 28 days after treatment, 2 to 3 leaf stage, foramsulfuron 29, imazamox 140, simazine 1120 g ha^−1): 11%
Annual bluegrass biomass RP4 ([1]; RP4, aboveground dry biomass 28 days after treatment, foramsulfuron 29, imazamox 140, simazine 1120 g ha^-1): 41 % of nontreated control
Annual bluegrass control RP4 ([1]; RP4 plants, 28 days after treatment, 2 to 3 leaf stage, foramsulfuron 29, imazamox 140, simazine 1120 g ha^−1): 5%
Annual bluegrass biomass RP5 ([1]; RP5, aboveground dry biomass 28 days after treatment, foramsulfuron 29, imazamox 140, simazine 1120 g ha^-1): 62 % of nontreated control
Annual bluegrass control RP5 ([1]; RP5 plants, 28 days after treatment, 2 to 3 leaf stage, foramsulfuron 29, imazamox 140, simazine 1120 g ha^−1): 10%
Annual bluegrass biomass RP6 ([1]; RP6, aboveground dry biomass 28 days after treatment, foramsulfuron 29, imazamox 140, simazine 1120 g ha^-1): 49 % of nontreated control
Annual bluegrass control RP6 ([1]; RP6 plants, 28 days after treatment, 2 to 3 leaf stage, foramsulfuron 29, imazamox 140, simazine 1120 g ha^−1): 24%
Annual bluegrass biomass RP7 ([1]; RP7, aboveground dry biomass 28 days after treatment, foramsulfuron 29, imazamox 140, simazine 1120 g ha^-1): 52 % of nontreated control
Annual bluegrass control RP7 ([1]; RP7 plants, 28 days after treatment, 2 to 3 leaf stage, foramsulfuron 29, imazamox 140, simazine 1120 g ha^−1): 10%
Annual bluegrass biomass RP8 ([1]; RP8, aboveground dry biomass 28 days after treatment, foramsulfuron 29, imazamox 140, simazine 1120 g ha^-1): 51 % of nontreated control
Annual bluegrass control RP8 ([1]; RP8 plants, 28 days after treatment, 2 to 3 leaf stage, foramsulfuron 29, imazamox 140, simazine 1120 g ha^−1): 5%
Annual bluegrass control S ([1]; susceptible (S) plants, 28 days after treatment, 2 to 3 leaf stage, foramsulfuron 29, imazamox 140, simazine 1120 g ha^−1): 93%
Annual bluegrass biomass S ([1]; susceptible (S), aboveground dry biomass 28 days after treatment, foramsulfuron 29, imazamox 140, simazine 1120 g ha^-1): 0 % of nontreated control
Annual bluegrass control RP6 ([2]; RP6, herbicide alone, foramsulfuron 29, trifloxysulfuron 27.8, imazaquin 27.5, bispyribac-sodium 70 g ha^−1): 58%
Annual bluegrass control RP6 ([2]; RP6, herbicide with PBO 2100 g ha^−1 applied 60 min prior): 31%
Annual bluegrass control RP6 ([2]; RP6, herbicide with malathion 1000 g ha^−1 applied 60 min prior): 24%
Annual bluegrass control RP7 ([2]; RP7, herbicide alone, foramsulfuron 29, trifloxysulfuron 27.8, imazaquin 27.5, bispyribac-sodium 70 g ha^−1): 28%
Annual bluegrass control RP7 ([2]; RP7, herbicide with PBO 2100 g ha^−1 applied 60 min prior): 24%
Annual bluegrass control RP7 ([2]; RP7, herbicide with malathion 1000 g ha^−1 applied 60 min prior): 22%
Annual bluegrass control S ([2]; herbicide alone, foramsulfuron 29, trifloxysulfuron 27.8, imazaquin 27.5, bispyribac-sodium 70 g ha^−1): 91%
Annual bluegrass control S ([2]; herbicide with PBO 2100 g ha^−1 applied 60 min prior): 95%
Annual bluegrass control S ([2]; herbicide with malathion 1000 g ha^−1 applied 60 min prior): 96%
